Assay results reported in article doi:10.1101/2020.08.16.252940v1 (biorxiv, 2020).

How the values were obtained:
VDR-LBD = VDR-LBD (Homo sapiens, UniProt P11473); assay: biochemical
VDR = VDR (Homo sapiens, UniProt P11473); conditions: antagonist mode; agonist and cell line not told
Sequence of VDR (P11473 whole entry): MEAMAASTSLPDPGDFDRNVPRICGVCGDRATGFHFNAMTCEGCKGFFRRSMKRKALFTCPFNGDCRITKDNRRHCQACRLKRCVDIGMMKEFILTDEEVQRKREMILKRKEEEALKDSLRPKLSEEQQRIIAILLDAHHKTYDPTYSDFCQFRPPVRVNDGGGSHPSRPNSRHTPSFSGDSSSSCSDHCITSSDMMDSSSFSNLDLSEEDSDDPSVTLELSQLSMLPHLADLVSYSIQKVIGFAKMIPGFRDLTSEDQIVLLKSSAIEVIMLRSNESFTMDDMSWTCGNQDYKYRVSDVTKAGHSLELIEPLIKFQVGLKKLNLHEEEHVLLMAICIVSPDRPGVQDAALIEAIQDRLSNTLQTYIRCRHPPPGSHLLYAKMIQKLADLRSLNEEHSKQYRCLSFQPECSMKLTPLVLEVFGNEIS

Sequence of VDR-LBD (P11473 118-427 limits assumed): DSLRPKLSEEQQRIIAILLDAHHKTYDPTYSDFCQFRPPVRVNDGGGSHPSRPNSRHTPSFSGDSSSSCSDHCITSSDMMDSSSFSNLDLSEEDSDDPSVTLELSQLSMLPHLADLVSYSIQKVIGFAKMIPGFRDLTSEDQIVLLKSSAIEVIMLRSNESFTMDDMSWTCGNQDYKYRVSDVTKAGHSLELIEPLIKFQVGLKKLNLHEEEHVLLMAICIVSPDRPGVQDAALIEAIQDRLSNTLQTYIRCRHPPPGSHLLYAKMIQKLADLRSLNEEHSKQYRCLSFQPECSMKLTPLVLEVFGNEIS

IC50 (VDR-LBD)	inhibition only at concentrations above (VDR)	Compound
1860 nM	–	CC(C)CCC[C@@H](C)[C@H]1CC[C@@H]2[C@]1(C)CC[C@H]1[C@]23C=C[C@]2(C[C@@H](OC(=O)CBr)CC[C@]12C)n1c(=O)n(C)c(=O)n13 [MeTC7]
–	> 100 µM	CC(C)CCC[C@@H](C)[C@H]1CC[C@H]2C3=CC=C4C[C@@H](O)CC[C@]4(C)[C@H]3CC[C@]12C [7-dehydrocholesterol]
